Like-named read-outs stand apart in the source and are kept apart here.
What was measured:
[1] = test system: fibrin- and LPS-induced microglia activation; experiment: cells; format: cell-based, rat
[2] = test system: primary rat microglia; experiment: Cell toxicity (dead cells, size <150 μm2) in LPS assay; settings: for IC50: read-out: Cell Toxicity IC50 (uM) [LPS assay]
[3] = test system: LPS-induced microglia activation; experiment: Image-based assay of LPS-induced microglia activation (HTS and dose response); format: cell-based, rat; settings: for inhibition at 10 µM: Rattus norvegicus, Microglia, read-out: LPS % inhibition
[4] = test system: fibrin-induced microglia activation; experiment: Image-based assay of fibrin-induced microglia activation (HTS and dose response); format: cell-based, rat; settings: for inhibition at 10 µM: Rattus norvegicus, Microglia, read-out: Fibrin % inhibition
[5] = test system: primary rat microglia; experiment: Cell toxicity (dead cells, size <150 μm2) in coated fibrin (cFib) assay; settings: for IC50: read-out: Cell Toxicity IC50 (uM) [cFib assay];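 for Fibrin % cell toxicity: share of dead cells sized under 150 µm2 at 10 µM in fibrin-stimulated microglia HTS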
[6] = HTS of 1907 compounds, quadrant by fibrin and LPS inhibition
[7] = primary microglia HTS, 10 μM, LPS assay, cell size <150 μm^2 as marker of toxicity
[8] = primary microglia HTS, 10 μM, LPS-stimulated, cell size >800 μm^2 as marker of activation
[9] = primary microglia HTS, 10 μM, fibrin-stimulated, cell size >800 μm^2 as marker of activation
[10] = primary microglia HTS, 10 μM, fibrin assay, cell size <150 μm^2 as marker of toxicity
[11] = quadrant by fibrin and LPS inhibition in HTS of 1907 compounds
[12] = primary microglia HTS, LPS stimulation, toxicity = cell size <150 μm2
[13] = 48 h, primary microglia HTS, LPS stimulation, activation = cell size >800 μm2
[14] = primary microglia HTS, fibrin stimulation, activation = cell size >800 μm2
[15] = primary microglia HTS, fibrin stimulation, toxicity = cell size <150 μm2
[16] = primary microglia HTS, LPS stimulation, decreased size (<150 μm^2) as marker of toxicity
[17] = primary microglia HTS, LPS stimulation, increased cell size (>800 μm^2) as marker of activation
[18] = primary microglia HTS, fibrin stimulation, increased cell size (>800 μm^2) as marker of activation
[19] = primary microglia HTS, fibrin stimulation, decreased size (<150 μm^2) as marker of toxicity
[20] = primary HTS, 10 μM, LPS assay, dead cells size <150 μm2
[21] = primary HTS, 10 μM, LPS-stimulated primary microglia
[22] = primary HTS, 10 μM, fibrin-stimulated primary microglia
[23] = primary HTS, 10 μM, fibrin assay, dead cells size <150 μm2

NC[C@H]1O[C@H](O[C@H]2[C@H](O)[C@@H](O[C@H]3O[C@H](CO)[C@@H](O)[C@H](N)[C@H]3O)[C@H](N)C[C@@H]2N)[C@H](N)C[C@@H]1O [Tobramycin]
Quadrant (FIG. 5b) [1, 6]: Q4
LPS % cell toxicity [2, 7]: 0%
inhibition at 10 µM [3, 8]: 24%
inhibition at 10 µM [4, 9]: 1%
Fibrin % cell toxicity [5, 10]: 1%

O=C(O)P(=O)(O)O [Foscarnet]
Quadrant (FIG. 5b) [1, 11]: Q4
LPS % cell toxicity [2, 12]: 0%
inhibition at 10 µM [3, 13]: 10%
inhibition at 10 µM [4, 14]: 5%
Fibrin % cell toxicity [5, 15]: 1%

NC(=O)c1cc([N+](=O)[O-])cc([N+](=O)[O-])c1 [Nitromide]
Quadrant (FIG. 5b) [1, 11]: Q4
LPS % cell toxicity [2, 16]: 0%
LPS % inhibition [3, 17]: 11%
Fibrin % inhibition [4, 18]: −7%
Fibrin % cell toxicity [5, 19]: 0%

CC(C)(O)C(Cl)(Cl)Cl [Chlorobutanol]
Quadrant (FIG. 5b) ([1]; primary HTS, 10 μM): Q4
LPS % cell toxicity [2, 20]: 0%
inhibition at 10 µM [3, 21]: 3%
inhibition at 10 µM [4, 22]: -20%
Fibrin % cell toxicity [5, 23]: 1%

CC[C@H](c1ccc(O)cc1)[C@@H](CC)c1ccc(O)cc1 [Hexestrol]
Quadrant (FIG. 5b) [1, 11]: Q4
LPS % cell toxicity [2, 12]: 0%
inhibition at 10 µM [3, 13]: 7%
inhibition at 10 µM [4, 14]: -29%
Fibrin % cell toxicity [5, 15]: 1%

Cc1c(N(C)CS(=O)(=O)[O-])c(=O)n(-c2ccccc2)n1C.[Na+] [Dipyrone]
Quadrant (FIG. 5b) [1, 11]: Q2
LPS % cell toxicity [2, 16]: 36%
LPS % inhibition [3, 17]: 101%
Fibrin % inhibition [4, 18]: 106%
Fibrin % cell toxicity [5, 19]: 26%

O=C1[O][Pt]2([NH][C@@H]3CCCC[C@H]3[NH]2)[O]C1=O [Oxaliplatin, reference compound]
Hit ([1]; HTS hit classification): HIT (Hits were defined as molecules that exhibited greater than 50% inhibition of either fibrin or LPS activation)
Quadrant (FIG. 5b) [1, 6]: Q3
Quadrant (FIG. 5b) ([1]; Table 1, screen at 10 μM): Q3
Cherry-picked Hit (Suppl. Table 7) ([1]; Table 3): HIT (Hits were defined as molecules that exhibited greater than 50% inhibition of either fibrin or LPS activation)
Quadrant (FIG. 5b) ([1]; Table 3, screen at 10 μM): Q3
Cherry-picked Hit (Suppl. Table 7) ([1]; hit classification in microglia HTS): HIT (Hits were defined as molecules that exhibited greater than 50% inhibition of either fibrin or LPS activation)
Quadrant (FIG. 5b) [1, 11]: Q3
Quadrant (FIG. 5b) ([1]; quadrant by fibrin and LPS inhibition, HTS at 10 μM): Q3
IC50 ([2]; LPS assay): > 20 µM
IC50 ([2]; Table 3): > 20 µM
IC50 ([3]; LPS-induced microglia activation, dose response, read-out: LPS IC50 (uM) (Suppl. Table 7)): 15 µM
IC50 ([3]; Table 1, dose response 0.001-20 μM, triplicates, primary rat microglia, 48 h, read-out: LPS IC50): 15 µM
IC50 ([3]; Table 3, read-out: LPS IC50 (uM) (Suppl. Table 7)): 15 µM
IC50 ([3]; dose response, LPS-induced microglia activation, read-out: LPS IC50): 15 µM
LPS % inhibition ([3]; primary microglia HTS, LPS stimulation, compounds at 10 μM): 21%
LPS % inhibition [3, 17]: 41%
IC50 ([4]; Table 1, dose response 0.001-20 μM, triplicates, primary rat microglia, 48 h, read-out: Fibrin IC50): 5 µM
IC50 ([4]; Table 3, read-out: Fibrin IC50 (uM) (Suppl. Table 7)): 5 µM
IC50 ([4]; dose response, fibrin-induced microglia activation, read-out: Fibrin IC50): 5 µM
IC50 ([4]; fibrin-induced microglia activation, dose response, read-out: Fibrin IC50 (uM) (Suppl. Table 7)): 5 µM
Fibrin % inhibition ([4]; primary microglia HTS, fibrin stimulation, compounds at 10 μM): 66%
Fibrin % inhibition [4, 18]: 96%
IC50 ([5]; Table 3): > 20 µM
IC50 ([5]; cFib assay): > 20 µM

CC(C(=O)O)c1ccc(-c2ccccc2)c(F)c1 (stereo not shown) [Flurbiprofen]
Quadrant (FIG. 5b) [1, 11]: Q4
LPS % cell toxicity [2, 12]: 0%
inhibition at 10 µM [3, 13]: 33%
inhibition at 10 µM [4, 14]: 17%
Fibrin % cell toxicity [5, 15]: 0%

CC[n+]1c(-c2ccccc2)c2cc(N)ccc2c2ccc(N)cc21 [Homidium Bromide]
Quadrant (FIG. 5b) [1, 11]: Q2
LPS % cell toxicity [2, 16]: 9%
inhibition at 10 µM ([3]; 48 h, primary microglia HTS, LPS stimulation, increased cell size (>800 μm^2) as marker of activation): 103%
inhibition at 10 µM [4, 18]: 84%
Fibrin % cell toxicity [5, 19]: 17%

CCNC(=O)/C=C/c1cccc(Br)c1 [Cinromide]
Quadrant (FIG. 5b) ([1]; primary HTS, 10 μM): Q4
LPS % cell toxicity [2, 20]: 0%
inhibition at 10 µM [3, 21]: 13%
inhibition at 10 µM [4, 22]: -10%
Fibrin % cell toxicity [5, 23]: 1%

CC(=O)NS(=O)(=O)c1ccc(N)cc1 [Sulfacetamide]
Quadrant (FIG. 5b) [1, 6]: Q4
LPS % cell toxicity [2, 7]: 0%
inhibition at 10 µM [3, 8]: 10%
inhibition at 10 µM [4, 9]: -2%
Fibrin % cell toxicity [5, 10]: 1%

CO[C@@]1(NC(=O)Cc2cccs2)C(=O)N2C(C(=O)O)=C(COC(N)=O)CS[C@@H]21 [Cefoxitin]
Quadrant (FIG. 5b) ([1]; primary HTS, 10 μM): Q4
LPS % cell toxicity [2, 20]: 0%
inhibition at 10 µM [3, 21]: 8%
inhibition at 10 µM [4, 22]: 6%
Fibrin % cell toxicity [5, 23]: 0%

Reference: patent US20210330611A1, “THERAPY FOR NEUROLOGICAL DISEASES/DISORDERS” (priority 2020, published 2021)
